Patent publication US20210177828A1, “TAM FAMILY KINASE /AND CSF1R KINASE INHIBITOR AND USE THEREOF” (Nanjing Transthera Biosciences Co., Ltd., priority 2018, published 2021)

What was measured:
MDA-MB-231 cell pAxl = target: T1, MDA-MB-231 cell pAxl (Homo sapiens, UniProt P30530); assay: Inhibitory activity on cell pAxl, MDA-MB-231 cells, hGAS6 stimulation, Western Blot; type: cell-based; settings: hGAS6 200 ng/mL
T1 construct: endogenous in cells; host or cells: MDA-MB-231
T1 sequence (P30530 26-894): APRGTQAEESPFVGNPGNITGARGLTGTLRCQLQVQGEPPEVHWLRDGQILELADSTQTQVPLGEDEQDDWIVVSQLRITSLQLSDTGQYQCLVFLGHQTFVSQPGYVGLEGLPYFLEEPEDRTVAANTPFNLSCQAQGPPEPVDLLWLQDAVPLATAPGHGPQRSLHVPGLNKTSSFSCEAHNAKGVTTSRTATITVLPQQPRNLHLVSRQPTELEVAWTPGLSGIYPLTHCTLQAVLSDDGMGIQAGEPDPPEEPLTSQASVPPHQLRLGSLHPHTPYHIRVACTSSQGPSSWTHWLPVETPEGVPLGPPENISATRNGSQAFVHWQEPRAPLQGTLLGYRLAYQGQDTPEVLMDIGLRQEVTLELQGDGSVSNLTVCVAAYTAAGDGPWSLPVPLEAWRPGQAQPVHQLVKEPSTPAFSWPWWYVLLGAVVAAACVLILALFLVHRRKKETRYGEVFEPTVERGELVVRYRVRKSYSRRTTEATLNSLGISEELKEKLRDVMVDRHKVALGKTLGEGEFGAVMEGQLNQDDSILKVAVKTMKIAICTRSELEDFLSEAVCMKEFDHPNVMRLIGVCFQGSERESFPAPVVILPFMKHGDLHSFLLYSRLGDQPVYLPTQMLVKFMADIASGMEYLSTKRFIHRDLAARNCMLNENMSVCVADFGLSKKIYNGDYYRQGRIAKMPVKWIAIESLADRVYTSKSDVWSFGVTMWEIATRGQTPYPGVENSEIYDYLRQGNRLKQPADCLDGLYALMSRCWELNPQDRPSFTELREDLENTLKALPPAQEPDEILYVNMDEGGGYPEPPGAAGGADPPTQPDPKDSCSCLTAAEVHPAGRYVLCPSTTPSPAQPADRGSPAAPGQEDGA
Procedure: MDA-MB-231 is a breast cancer cell.
MDA-MB-231 cells were inoculated to a 6-well plate (containing 10% FBS DMEM medium, […] cells per well) and adherently cultivated at 37° C., and 5% CO2 for 18 hrs. The cells were starved overnight, and then compound solutions with different concentrations were added. Compounds 1 and 2 had final concentrations of 1.1, 3.3 and 10 nM, and the remaining compounds had final concentrations of 1.1, 3.3, 10 and 30 nM. […] There was a medium containing 1‰DMSO in the negative control well. The cells were incubated at 37° C., and 5% CO2 for 60 min, and then hGAS6 (R&D, final concentration: 200 ng/mL) was added to each well. The cells were further incubated for 60 min, and then the total protein of the cells was extracted for Western Blot experiment. Gray analysis was performed on the results with Image J software, and IC50 values were calculated with GraphPad 5.0 software. The inhibitory activities of the compounds on cell pAxl were detected.

[1] = Liver microsomal stability; type: in vitro ADME; settings: mouse liver microsomes, 0.5 mg protein/mL, 1 μM compound
Procedure: An appropriate amount of the compound was precisely weighed and dissolved in DMSO to prepare a 5.0 mM stock solution. The 5.0 mM stock solution was diluted with DMSO to 1.0 mM, and finally diluted with water to a 10 μM working solution of the test sample for use (the DMSO content in the reaction system was 0.1%).
(1) The liver microsomes (20 mg protein/mL) were taken from a −80° C. refrigerator, pre-incubated on a 37° C. water bath thermostatic oscillator for 3 min, and thawed for use.
(2) An incubation system (without compound and β-NADPH) was prepared according to “composition of the incubation system” described above, and pre-incubated on a 37° C. water bath thermostatic oscillator for 2 min.
(3) Control group (without β-NADPH): 30 μL of water and 30 μL of compound working solution (10 μM) were added to 240 μL of the incubation system in step (2), and the reaction system was vortexed for 30 s and thoroughly mixed. The total volume of the reaction system was 300 μL. The sample was duplicated. The reaction solution was placed on a 37° C. water bath thermostatic oscillator for incubation, and timing was started. The sampling was conducted at 0 min and 60 min.
(4) Sample group: 70 μL of β-NADPH solution (10 mM) and 70 μL of compound working solution (10 μM) were added to 560 μL of the incubation system in step (2), and the total volume of the reaction system was 700 μL. The reaction solution was vortexed for 30 s and thoroughly mixed. The sample was duplicated. The reaction solution was placed on a 37° C. water bath thermostatic oscillator for incubation, and timing was started. The sampling was conducted at 0 min, 5 min, 10 min, 20 min, 30 min and 60 min.
(5) The reaction solution was vortexed for 3 min, and centrifuged at 12,000 rpm for 5 min.
(6) 50 μL of the supernatant was added to 150 μL of water, and the resulting solution was thoroughly vortexed and analyzed by LC/MS/MS.

Row | SMILES | IC50 (MDA-MB-231 cell pAxl) [nM] | half-life at 1 μM [1] [h] | microsomal CLint at 1 μM [1] [µL/min/mg]
1 | COc1cc2nccc(Oc3cnc(NC(=O)c4nn(CC5CCOCC5)cc(-c5ccc(C)cc5)c4=O)nc3)c2cc1OC [Compound 16, N-(5-((6,7-dimethoxyquinolin-4-yl)oxy)pyrimidin-2-yl)-4-oxo-1-((tetrahydro-2H-pyran-4-yl)methyl)-5-(p-tolyl)-1,4-dihydropyridazin-3-carboxamide] | < 1.1 | 3.5 | 6.6
2 | COc1cc2nccc(Oc3ccc(NC(=O)c4nn(C5CCOCC5)cc(-c5ccc(C)cc5)c4=O)nc3)c2cc1OC [Compound 17, N-(5-((6,7-dimethoxyquinolin-4-yl)oxy)pyridin-2-yl)-4-oxo-1-(tetrahydro-2H-pyran-4-yl)-5-(p-tolyl)-1,4-dihydropyridazin-3-carboxamide] | < 1.1 | 1.87 | 12.4
3 | COc1cc2nccc(Oc3cnc(NC(=O)c4nn(C5CCOCC5)cc(-c5ccc(C)cc5)c4=O)nc3)c2cc1OC [Compound 18, N-(5-((6,7-dimethoxyquinolin-4-yl)oxy)pyrimidin-2-yl)-4-oxo-1-(tetrahydro-2H-pyran-4-yl)-5-(p-tolyl)-1,4-dihydropyridazin-3-carboxamide] | < 1.1 | 1.93 | 12
4 | COc1cc2nccc(Oc3ccc(NC(=O)c4cn(C5CCOCC5)cc(-c5ccc(C)cc5)c4=O)nc3)c2cc1OC [Compound 19, N-(5-((6,7-dimethoxyquinolin-4-yl)oxy)pyridin-2-yl)-4-oxo-1-(tetrahydro-2H-pyran-4-yl)-5-(p-tolyl)-1,4-dihydropyridin-3-carboxamide] | < 1.1 | 2.27 | 10.2
5 | COc1cc2nccc(Oc3cnc(NC(=O)c4cn(C5CCOCC5)cc(-c5ccc(C)cc5)c4=O)nc3)c2cc1OC [Compound 20, N-(5-((6,7-dimethoxyquinolin-4-yl)oxy)pyrimidin-2-yl)-4-oxo-1-(tetrahydro-2H-pyran-4-yl)-5-(p-tolyl)-1,4-dihydropyridin-3-carboxamide] | < 10 | 3.73 | 6.2
6 | COc1cc2nccc(Oc3ccc(NC(=O)c4cc(CC5CCOCC5)cn(-c5ccc(C)cc5)c4=O)nc3)c2cc1OC [Compound 26, N-(5-((6,7-dimethoxyquinolin-4-yl)oxy)pyridin-2-yl)-oxo-5-((tetrahydro-2H-pyran-4-yl)methyl)-1-(p-tolyl)-1,2-dihydropyridin-3-carboxamide] | < 3.3 | 1.75 | 13.2
